In patent US6835398B2, “Method of administering high-dose, oral magnesium for treatment of chronic pain syndrome of erythromelalgia” (priority 2001, dated 2004):
“Also recorded” adds a separate entry of the source.

Legend:
[1] = test system: patient with CRPS1 / erythromelalgia (EM); assay: Case study patient #1 (CRPS1/EM): pain and symptom response; format: in vivo, human
Source text: A magnesium treatment regimen was then investigated.
When the infusions were postponed, small doses of the MgSO4 solution was mixed with water and ingested orally.

[2] = test system: patients with erythromelalgia (EM); assay: Tolerability of oral magnesium products in patients (diarrhea, adverse effects, achievable dose)
Source text: (§1) Thirteen patients took nonprescription magnesium oxide ([…]) or magnesium-protein (Mg-protein) products in gradually escalating and divided doses totaling 0.6-5 grams/day elemental magnesium under their physicians' supervision.
(§2) Although magnesium's potential benefits for many disorders have been described, patients' lack of tolerance to traditional therapeutic doses has precluded widespread utilization. Indeed, some patients have difficulty tolerating the RDA of magnesium. […] All doses were divided and taken at 4-6 hour intervals with copious amounts of water. All patients had normal renal function, which is required for undertaking magnesium therapy.

[3] = test system: patients with erythromelalgia (EM); assay: High-dose oral magnesium therapy in erythromelalgia patients: pain and symptom response; format: in vivo, human; conditions: for worsening of EM: one patient
Source text: as §1
Specifically, it is most important that the magnesium compound (sulfate, oxide, carbonate, etc.) be either very finely divided or dissolved. […] Ideally, dosing should begin at RDA levels and increased as tolerance increases, until pain and/or symptom reduction is achieved. This level can then be maintained longterm. This pain reduction and long term dosing can begin as low as 600 mg elemental Mg/day and may be increased until gastrointestinal distress resulting from administration is consistent. This may occur at a dosage as high as 5 g/day elemental magnesium or even higher. Preferably, at least 1 gm magnesium/day should be administered, more preferably 1.2 gm, more preferably 1.5 gm, still more preferably 2 gm Mg/day. Still more preferably 2.5 gm Mg/day, and most preferably at least 3 gm Mg/day should be administered. To reduce the likelihood of gastrointestinal distress, daily dosages should be divided into several smaller administrations of not more than 500 mg elemental magnesium, preferably not more than 250 mg, and more preferably not more than […] Magnesium per dose. These can be administered several times daily to achieve the correct total daily dose. Small doses taken every 1-2 hours can be used, as can slightly larger doses taken every 4-6 hours. The frequency and size of doses is not as important as the total daily dose, provided the patient can tolerate the regimen.
as §2

subjects = conditions: 250 mg two times daily, oral, one study; cited from earlier work

## O=S(=O)([O-])[O-].[Mg+2] [MgSO4, magnesium sulfate]
Patient #1, also two hours after ingesting two grams of MgSO4
  serum magnesium measurements: normal
Patient #1, up to 12 grams/day orally
  repeated chemistries and urine studies: normal
[1]
  pain and symptom response: Pain was completely eliminated; also recorded: nearly total remission from EM
[2]; patient #1
  adverse effects: only occasional, mild adverse effects (loose stools, blurred vision)
[2]; patient #1, 50% MgSO4 solution mixed with water, oral, increased very gradually
  daily dose reached: 12 grams MgSO4/day

## COc1ccc([C@@H]2Sc3ccccc3N(CCN(C)C)C(=O)[C@@H]2OC(C)=O)cc1 [diltiazem]
[3]
  worsening of EM: worsening
[1]
  pain and symptom response: greater, but still limited, benefit

## [O]=[Mg] [magnesium oxide]
[3]; person with CIPD and severe EM, escalating doses to 4-5 grams/day
  pain and function response: significantly less pain and improved function
[3]; person with EM, escalating doses to 4-5 grams/day, within two weeks
  pain and flaring response: marked reduction in pain and flaring
[2]; one patient unable to tolerate 2 grams of magnesium tablets, blended in water
  dose reached: 4.5 grams/day

## [Mg+2] [magnesium]
[3]; 4 of the 6 patients who reached doses above 1 gram/day (1.2 to 7 grams/day)
  patients who improved: 67%
[3]; 6 of 8 who reached therapeutic levels, with the two already known cases
  patients who obtained benefit: 75%
[3]; escalating divided doses totaling 0.6-5 grams/day elemental magnesium, 13 refractory patients
  patients who obtained substantial pain reduction and improvement in other symptoms: eight of these thirteen
[3]
  worsening of EM: worsened
[3]; patients who had previously received nifedipine and/or diltiazem
  effectiveness and tolerability compared with nifedipine and/or diltiazem: more effective and better tolerated
[3]; six of 11 EM patients, after 2 months
  patients who reported improvement: 55%
subjects
  adverse effects in subjects: 45.7%
